Structures can show the parent of a compound that is named as a salt. Activity calls are given as the source filed them.
Legend:
P388 = assay: cells; assay type: functional; details: Mus musculus
P388/ADR = assay: cells; assay type: functional; details: Mus musculus
SN12K1 = assay: cells; assay type: functional; details: Homo sapiens
Vero = assay: cells; assay type: functional; details: Chlorocebus sabaeus
Cytochrome P450 3A4 = Cytochrome P450 3A4 (Homo sapiens, UniProt P08684); details: Potency;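 further: confirmatory qHTS run detecting inhibitors and substrates of CYP3A4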
Chain of Cytochrome P450 3A4 (P08684 whole entry): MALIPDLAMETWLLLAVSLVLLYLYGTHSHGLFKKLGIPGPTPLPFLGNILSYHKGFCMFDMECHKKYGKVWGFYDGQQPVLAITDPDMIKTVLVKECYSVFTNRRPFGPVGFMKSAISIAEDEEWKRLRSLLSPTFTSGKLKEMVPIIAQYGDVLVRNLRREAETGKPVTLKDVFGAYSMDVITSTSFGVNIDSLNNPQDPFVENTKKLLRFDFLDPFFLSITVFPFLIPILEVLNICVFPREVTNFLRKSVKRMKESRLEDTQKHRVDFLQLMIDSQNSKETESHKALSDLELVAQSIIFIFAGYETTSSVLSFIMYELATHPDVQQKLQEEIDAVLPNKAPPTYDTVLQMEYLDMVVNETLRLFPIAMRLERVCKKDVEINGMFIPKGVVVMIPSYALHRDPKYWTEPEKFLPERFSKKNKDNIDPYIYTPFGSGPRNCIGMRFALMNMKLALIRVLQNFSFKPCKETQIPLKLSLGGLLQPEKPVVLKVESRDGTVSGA

[1] = cytotoxicity in KRAS-transformed pancreatic duct cells, primary screen, cell-based, fluorescence, HTS (AID 431); assay type: functional; details: Homo sapiens;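 further: cell line used: HPDE-C7K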
[2] = growth suppression of beta-catenin-knockout colon cells, dose response, cell-based, HCT116, human colon tumor (AID 1045); assay type: functional;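 further: HCT116 colon tumor cells with beta catenin knocked out; cells exposed to compound for 60 hours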
[3] = growth suppression of PTEN-null colon cells, dose response, cell-based, HCT116 PTEN knockout (AID 1047); assay type: functional;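 further: HCT116 colon tumor cells with PTEN knocked out; cells exposed to compound for 60 hours before readout; potency for loss of cell viability measured by luminescence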
[4] = cytotoxicity in HPDE-C7 cells, cell-based, fluorescence, HTS (AID 430); assay type: functional; details: Homo sapiens
[5] = Luminescence Cell-Based Dose Retest to Confirm Inhibitors of Cancer Stem Cells. [Related pubchem assays (depositor defined):AID2717, AID2721]; assay type: functional; details: Homo sapiens
[6] = biological target: Eukaryotic translation initiation factor 4E (Mus musculus, UniProt P63073); assay: eIF4E–eIF4G protein interaction inhibitors, dose response, biochemical, TR-FRET (AID 855); assay type: functional;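 further: potency for disrupting eIF4E binding to eIF4GI seen as loss of FRET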
Chain of Eukaryotic translation initiation factor 4E (P63073 whole entry): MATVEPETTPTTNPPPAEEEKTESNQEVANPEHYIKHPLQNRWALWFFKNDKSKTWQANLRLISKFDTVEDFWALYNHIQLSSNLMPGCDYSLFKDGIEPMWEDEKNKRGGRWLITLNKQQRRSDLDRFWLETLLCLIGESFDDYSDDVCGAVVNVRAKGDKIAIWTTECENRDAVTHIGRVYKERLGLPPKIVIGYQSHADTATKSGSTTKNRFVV

[7] = biological target: T1, Endoribonuclease toxin MazF (Escherichia coli K-12, UniProt P0AE70); assay: fluorescent RNA oligo signal without MazF, dose response, counter-screen for MazEF activator project, biochemical, fluorescence, single-stranded RNase substrate (AID 588502); assay type: functional
T1 sequence (P0AE70 whole entry): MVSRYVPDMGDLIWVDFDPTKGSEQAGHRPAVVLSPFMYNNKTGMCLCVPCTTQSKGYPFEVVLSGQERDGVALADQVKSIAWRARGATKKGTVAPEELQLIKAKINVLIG

[8] = biological target: T1, Endoribonuclease toxin MazF; assay: MazF toxin RNase activators, dose response, biochemical, fluorescence, single-stranded RNA substrate, uHTS hits (AID 588481); assay type: functional
[9] = control 3'UTR Renilla luciferase suppression, dose response, counter-screen for Shn3 inhibitor project, cell-based, Clone20-Shn3RL, cherry-picked (AID 624133); assay type: functional
[10] = Shn3 3'UTR reporter inhibitors, dose response, cell-based, Clone20 osteoblasts, firefly luciferase, cherry-picked (AID 624132); assay type: functional;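 further: firefly luciferase luminescence from reporter carrying the Shn3 3'UTR in osteoblasts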
cells [11] = assay type: functional
[12] = biological target: T2, Carboxy-terminal domain RNA polymerase II polypeptide A small phosphatase 1 (Homo sapiens, UniProt Q9GZU7); assay: inhibitors of CTDSP1, concentration-response testing, biochemical assay, absorbance-based, actives from ultra-high-throughput screening (AID 540297); assay type: functional
T2 sequence (Q9GZU7 whole entry): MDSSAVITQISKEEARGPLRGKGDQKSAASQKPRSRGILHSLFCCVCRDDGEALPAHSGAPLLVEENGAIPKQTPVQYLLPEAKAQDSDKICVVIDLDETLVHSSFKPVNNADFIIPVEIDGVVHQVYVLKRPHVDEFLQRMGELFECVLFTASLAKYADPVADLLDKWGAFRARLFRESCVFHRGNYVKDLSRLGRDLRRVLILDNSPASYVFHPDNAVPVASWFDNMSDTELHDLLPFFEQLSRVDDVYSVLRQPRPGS

[13] = HepG2 cell cytotoxicity, dose response, cytotoxicity control for Shn3 inhibitor project, CellTiter-Glo, cherry-picked (AID 624134); assay type: functional, cell-based
[14] = biological target: T3, Ubiquitin-conjugating enzyme E2 N (Homo sapiens, UniProt P61088); assay type: functional;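 further: Dose-response confirmation in a TR-FRET assay detecting UBC13-driven polyubiquitin chain formation, inhibition measured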
T3 sequence (P61088 whole entry): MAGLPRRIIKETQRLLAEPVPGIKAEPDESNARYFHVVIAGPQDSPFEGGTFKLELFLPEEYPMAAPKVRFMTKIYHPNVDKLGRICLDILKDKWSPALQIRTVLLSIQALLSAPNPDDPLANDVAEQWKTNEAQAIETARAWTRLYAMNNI

[15] = THP-1 cell cytotoxicity, dose response, cytotoxicity control for non-replicating M. tuberculosis project (AID 489025); assay type: functional
[16] = biological target: T4, Calpain-2 catalytic subunit (Sus scrofa, UniProt P43367); assay: pig calpain II inhibitor potency, dose response, biochemical, fluorogenic peptide substrate (AID 1420); assay type: functional
T4 sequence (P43367 whole entry): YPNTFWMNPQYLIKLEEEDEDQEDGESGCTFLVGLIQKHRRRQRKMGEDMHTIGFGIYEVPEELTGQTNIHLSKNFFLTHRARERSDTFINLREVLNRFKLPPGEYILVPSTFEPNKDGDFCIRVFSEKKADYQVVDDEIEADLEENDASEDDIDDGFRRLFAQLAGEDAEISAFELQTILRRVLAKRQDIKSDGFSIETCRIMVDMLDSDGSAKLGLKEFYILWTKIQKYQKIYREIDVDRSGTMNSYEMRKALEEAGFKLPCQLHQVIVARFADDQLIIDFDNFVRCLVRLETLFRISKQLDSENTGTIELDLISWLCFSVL

[17] = HEp-2 cell cytotoxicity, dose response, cytotoxicity control for RSV inhibitor project, HTS (AID 2410); assay type: functional; details: human respiratory syncytial virus
cells [18] = assay: cells
Cytochrome P450 2D6 = Cytochrome P450 2D6 (Homo sapiens, UniProt P10635);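 further: CYP2D6 member of a cytochrome P450 panel assay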
Chain of Cytochrome P450 2D6 (P10635 whole entry): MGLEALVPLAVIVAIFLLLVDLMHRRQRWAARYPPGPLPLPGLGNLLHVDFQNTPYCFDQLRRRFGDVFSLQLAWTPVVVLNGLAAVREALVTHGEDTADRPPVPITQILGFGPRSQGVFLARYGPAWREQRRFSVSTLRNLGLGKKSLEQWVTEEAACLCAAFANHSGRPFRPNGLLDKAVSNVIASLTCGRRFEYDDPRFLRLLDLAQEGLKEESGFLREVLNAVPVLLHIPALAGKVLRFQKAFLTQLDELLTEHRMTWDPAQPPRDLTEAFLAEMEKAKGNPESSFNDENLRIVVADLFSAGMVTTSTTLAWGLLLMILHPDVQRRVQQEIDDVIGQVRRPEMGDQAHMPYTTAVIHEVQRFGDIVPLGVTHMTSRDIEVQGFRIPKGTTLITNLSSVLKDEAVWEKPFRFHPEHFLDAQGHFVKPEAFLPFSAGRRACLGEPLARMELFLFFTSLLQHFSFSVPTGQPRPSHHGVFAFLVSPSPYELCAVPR

[19] = biological target: T5, Polyadenylate-binding protein 1 (Homo sapiens, UniProt P11940); assay: PABP1 MLLE–PAM2 binding inhibitor potency, dose response, biochemical, fluorescence polarization, FITC-PAM2 peptide (AID 602259); assay type: functional; details: read-out: IC50_Mean
T5 sequence (P11940 whole entry): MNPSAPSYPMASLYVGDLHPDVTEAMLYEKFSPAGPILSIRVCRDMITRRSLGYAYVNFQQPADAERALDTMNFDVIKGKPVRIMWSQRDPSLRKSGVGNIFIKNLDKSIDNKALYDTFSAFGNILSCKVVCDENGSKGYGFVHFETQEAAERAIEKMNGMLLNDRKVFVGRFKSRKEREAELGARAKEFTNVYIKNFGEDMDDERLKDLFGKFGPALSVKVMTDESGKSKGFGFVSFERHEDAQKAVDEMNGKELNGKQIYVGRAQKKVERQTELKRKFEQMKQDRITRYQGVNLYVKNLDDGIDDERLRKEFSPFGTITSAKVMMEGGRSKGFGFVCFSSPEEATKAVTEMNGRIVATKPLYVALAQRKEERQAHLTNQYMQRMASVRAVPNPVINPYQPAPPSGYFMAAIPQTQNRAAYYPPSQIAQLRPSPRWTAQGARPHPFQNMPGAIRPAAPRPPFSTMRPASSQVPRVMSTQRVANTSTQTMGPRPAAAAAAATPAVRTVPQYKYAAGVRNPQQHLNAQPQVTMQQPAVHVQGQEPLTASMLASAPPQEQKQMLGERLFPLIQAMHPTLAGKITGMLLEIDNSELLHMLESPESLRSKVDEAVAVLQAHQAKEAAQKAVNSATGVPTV

[20] = biological target: T6, DNA repair protein RAD52 homolog (Homo sapiens, UniProt P43351); assay type: functional, biochemical
T6 sequence (P43351 whole entry): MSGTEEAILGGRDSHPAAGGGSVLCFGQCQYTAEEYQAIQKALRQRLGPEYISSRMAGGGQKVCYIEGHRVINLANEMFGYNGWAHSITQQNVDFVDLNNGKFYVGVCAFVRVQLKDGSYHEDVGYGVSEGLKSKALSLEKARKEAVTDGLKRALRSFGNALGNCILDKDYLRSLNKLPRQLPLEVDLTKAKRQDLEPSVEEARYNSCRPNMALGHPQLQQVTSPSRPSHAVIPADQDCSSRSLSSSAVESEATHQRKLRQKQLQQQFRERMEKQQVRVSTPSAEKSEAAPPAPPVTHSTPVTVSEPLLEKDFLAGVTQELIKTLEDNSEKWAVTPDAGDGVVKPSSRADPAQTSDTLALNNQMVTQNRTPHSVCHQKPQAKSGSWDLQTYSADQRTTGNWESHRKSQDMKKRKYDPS

[21] = biological target: T5, Polyadenylate-binding protein 1; assay: PABP1 MLLE–PAM2 interaction inhibitors, dose response, miRNA deadenylation inhibitor project, biochemical, fluorescence polarization, Cy5-PAM2 peptide, secondary (AID 602260); assay type: functional; details: read-out: IC50_Mean

Nc1c(S(=O)(=O)O)cc2cc(S(=O)(=O)O)ccc2c1/N=N/c1ccc(-c2ccc(/N=N/c3c(N)c(S(=O)(=O)O)cc4cc(S(=O)(=O)O)ccc34)c(S(=O)(=O)O)c2)cc1
GI50 (P388): > 79.6 µM (inactive)
GI50 (P388/ADR): > 100 µM (inactive)
GI50 (SN12K1): > 100 µM (inactive)

CN1CCN(CC(O)(c2ccc(Cl)cc2)c2ccc(Cl)cc2)CC1
CC50 (Vero): > 25 µM (active)

CN(Cc1cnc2nc(N)nc(N)c2n1)c1ccc(C(=O)NC(CCC(=O)O)C(=O)O)c2ccccc12 (stereo not drawn)
GI50 (P388): < 0.01 µM (active)
GI50 (P388/ADR): < 0.01 µM (active)
GI50 (SN12K1): 0.01 µM (active)

Cn1c(=O)cc(N)n(Cc2ccccc2)c1=O
AC50 (Cytochrome P450 3A4): 39.8 µM (inconclusive)

CC1(C)Cc2c(C#N)c(N3CCN(C(=O)c4ccco4)CC3)nc(Cc3ccccc3)c2CO1
EC50 [1]: 11.8 µM (active)
EC50 [2]: 26 µM (active)
EC50 [3]: 23.3 µM (active)
EC50 [4]: 17.2 µM (active)

O=C(Nc1ccc(CN2CCOCC2)cc1)c1ccc(-c2ccc(Cl)cc2Cl)o1
AC50 [5]: 5.22 µM (active)
IC50 [6]: 50 µM (inactive)

CCC(=O)c1cn(CC(=O)Nc2ccccc2Cl)c2ccccc12
EC50 [7]: > 99 µM (inactive)
EC50 [8]: > 99 µM (inactive)
AC50 [9]: 6.05 µM (active)
AC50 [10]: < 0.26 µM (active)

O=c1oc(/C=C/c2ccc([N+](=O)[O-])s2)nc2ccccc12
EC50 [7]: > 99 µM (inactive)
EC50 [8]: > 99 µM (inactive)
IC50 (cells [11]): 10.7 µM (active)

CCOC(=O)C(C)Sc1ccc2nnc(-c3ccc(F)cc3)n2n1 (stereo not drawn)
IC50 [6]: > 64 µM (inactive)

O=C1NC(=S)NC(=O)C1=Cc1ccc(OCC(=O)N2CCCC2)cc1
IC50 [12]: 9 µM (active)

COc1cccc(N)c1
AC50 (Cytochrome P450 3A4): 31.6 µM (inconclusive)

O=C(CSc1nc(-c2ccco2)cc(C(F)(F)F)n1)Nc1ccc(C(=O)N2CCCCC2)cc1
EC50 [2]: 28.8 µM (active)
EC50 [3]: 62.7 µM (active)
AC50 [9]: 0.774 µM (active)
AC50 [10]: 2.87 µM (active)
AC50 [13]: 51 µM (active)

CCN(CC)CCCCn1c(-c2ccccc2)nc2c(N3CCOCC3)nc(C)nc21
AC50 (Cytochrome P450 3A4): 7.94 µM (inconclusive)

CCC1=C2CC[C@H]3C(=O)N(CC(=O)OC)C(=O)[C@H]3[C@H]2[C@@]2(C)/C(=N/CC(=O)OC)OC(=O)N2C1=O
AC50 (Cytochrome P450 3A4): 25.1 µM (inconclusive)

Cc1nnc(SCC2=C(C(=O)O)N3C(=O)C(NC(=O)Cn4nc(C(F)F)cc4C)C3SC2)s1 (stereo not drawn)
IC50 [12]: 7.83 µM (active)

Cc1ccc(S(=O)(=O)N2CCN(C(=O)/C=C/c3ccco3)CC2)cc1
IC50 [12]: 10.2 µM (active)

O=C(Nc1cccc(F)c1)c1cc(S(=O)(=O)NCCC2=CCCCC2)ccc1F
IC50 [14]: > 20 µM (inactive)
AC50 [9]: 13.9 µM (active)
AC50 [10]: 4.16 µM (active)
AC50 [13]: 39.8 µM (active)

CC(C)Cn1c(N)c(C(=O)COC(=O)c2cnc(Cl)c(Cl)c2)c(=O)n(C)c1=O
CC50 [15]: 25.7 µM (active)
IC50 (cells [11]): 13.2 µM (active)
IC50 [16]: 15.3 µM (not active)

O=C(CCCOc1ccc(Cl)cc1Cl)Nc1ccccc1C(=O)O
CC50 [17]: 9.45 µM (active)
IC50 (cells [18]): 5.66 µM (active)

O=[N+]([O-])c1ccc(Cl)c(S(=O)(=O)Nc2cccc(-c3ccc(N4CCOCC4)nn3)c2)c1
CC50 [17]: 37.3 µM (active)
IC50 (cells [18]): 32.5 µM (active)

Cc1cccc2sc(NC(=O)CN(C)S(=O)(=O)c3ccc(Br)s3)nc12
EC50 [1]: 12.2 µM (active)
EC50 [4]: 12.2 µM (active)

COc1ccccc1N1CCN(S(=O)(=O)Cc2ccccc2Cl)CC1
IC50 [6]: > 64 µM (inactive)

C#CCN1C(=O)S/C(=C\c2cc3c(cc2OC)OCO3)C1=O
EC50 [7]: 17.1 µM (active)
EC50 [8]: 12.5 µM (active)

CCC(=O)NC(=S)Nc1ccc(NC(=O)c2ccc([N+](=O)[O-])cc2)cc1
IC50 [6]: > 64 µM (inactive)

Cc1c(CCC(=O)O)c(=O)oc2cc(OCc3ccc(Br)cc3)ccc12
IC50 [12]: 7.23 µM (active)

CNc1[nH]c(=O)[nH]c(=O)c1N=Nc1cc(Cl)ccc1Cl
IC50 [12]: 11.6 µM (active)

Cc1c2cc[n+](CCN3CCCCC3)cc2c(C)c2c1[nH]c1ccc(O)cc12
GI50 (P388): 0.0111 µM (active)
GI50 (P388/ADR): 1.37 µM (inactive)
AC50 (Cytochrome P450 2D6): 5.01 µM (inconclusive)
GI50 (SN12K1): 1.5 µM (inactive)

COc1cc2cc3c4cc(OC)c(OC)cc4cc[n+]3cc2cc1OC
GI50 (P388): 0.881 µM (active)
GI50 (P388/ADR): 12.6 µM (inactive)
GI50 (SN12K1): > 61.9 µM (inactive)

c1ccc(C(c2ccccc2)[P+](c2ccccc2)(c2ccccc2)c2ccccc2)cc1
GI50 (P388): 0.382 µM (active)
GI50 (P388/ADR): 12.4 µM (inactive)
GI50 (SN12K1): 0.345 µM (active)

CSc1nc(SC)c2cnn(CC3CO3)c2n1 (stereo not drawn)
GI50 (P388): 15.6 µM (inactive)
GI50 (P388/ADR): 11.5 µM (inactive)
GI50 (SN12K1): 8.2 µM (inactive)

COc1cccc2c1C(=O)c1c(O)c3c(c(O)c1C2=O)CC(O)(C(=O)CO)CC3OC1CC(N)C(I)C(C)O1 (stereo not drawn)
GI50 (P388): 0.0612 µM (active)
GI50 (P388/ADR): 0.547 µM (active)

COC(=O)CCCCCN1C(=O)NC(c2ccccc2)C(C(=O)OCc2ccccc2)=C1C (stereo not drawn)
AC50 (Cytochrome P450 3A4): 10 µM (inconclusive)

Cc1ccc(-c2ccc(/C=N/O)o2)cc1[N+](=O)[O-]
CC50 [17]: 36.3 µM (active)
IC50 (cells [18]): 33.5 µM (active)

NCCc1cc(O)c(O)cc1O [OXIDOPAMINE HYDROCHLORIDE]
IC50 [19]: > 66 µM (inactive)
AC50 [20]: 4.12 µM (active)
IC50 [21]: > 66 µM (inactive)

From ChEMBL document CHEMBL1201862, “PubChem BioAssay data set” (2004)
